The values that follow come from patent EP3052475B1, “PHARMACEUTICAL USE OF 3-BENZYLSULFONYLPROPIONITRILE” (Olatec Therapeutics LLC, priority 2013, dated 2015).

Test [1] relates to arachidonic acid-induced ear swelling. Put plainly: topical arachidonic acid-induced ear swelling model in mice. As to conditions: inhibition of ear swelling vs vehicle, measured at 90 minutes after arachidonic acid application; topical application 30 min before and 15 min after arachidonic acid; indomethacin 14 mM (0.1 mg/20 µL, n=5), test compound 375 mM (1.0 mg/20 µL, n=10); P <0.001. The class given is in vivo, Male ICR mice. The protocol: 3-Benzylsulfonylpropionitrile, prepared from Example 1, was used in this experiment.
The test compound, indomethacin (positive control), and vehicle were evaluated for anti-inflammatory activity in a topical arachidonic acid-induced ear swelling model in mice.
Male ICR mice weighing 22 ± 2 g were used and randomly divided; the test compound and vehicle control had 10 mice, and indomethacin had 5 mice. Arachidonic Acid (0.5 mg in 20 µl of acetone:ethanol/1:1) was applied topically to the anterior and posterior surfaces of the right ear of each mice. Test substances and vehicle, as listed in Table 1 were similarly applied 30 min before and 15 min after arachidonic acid application. The thickness of the right ear and the left ear was measured and the difference calculated as an indication of the inflammation in the right ear. Ear swelling was measured by a Dyer model micrometer gauge at 60 and 90 minutes after arachidonic acid application as an index of inflammation. Percent inhibition was calculated according to the formula: Ic - It/Ic x 100, where Ic and It refers to increase of ear thickness (mm) in control and treated mice, respectively. ANOVA and Dunnett's test were employed to ascertain significant difference between vehicle control and treated groups. Significance is set at P<0.05 level.

For test [2], the system named is tail flick reaction to heat. Put plainly: tail flick test in mice (49°C water bath). The class given is in vivo. Here is the method:
The tail flick test is a test of the pain response in animals. The tail flick test is used in basic pain research and to measure the effectiveness of analgesics, by observing the tail flick reaction to heat in an animal. This test assesses the nociceptive response to a local pain stimulus, and the ability of a drug to inhibit this response. […] The test compound was administered at a dosage of 500 mg/kg in DMSO. […] Each group had 10 mice. The response of mice to heat stimulus was evaluated by measuring the time of tail-flick or tail-flick latency from 49°C water bath. Briefly, the animal was held with its tail hanging down. Approximately 2 inches of the tail was immersed in a beaker of water at 38±1 °C for about 30 seconds, and this was done twice to acclimate the animal to the procedure. Subsequently, approximately 2 inches of the tail was immersed in a beaker of water at 49±1°C, at which point a timer was started. […] An ANOVA was done, and if p<0.05, a Dunnett's t test was employed to calculate significant difference between vehicle control and test compound treated groups. […] Results of tail flick response from each group are calculated as mean ± SEM (standard error of mean).
(In general: Thermal pain tests record how soon the animal reacts.)

For the molecule `N#CCCS(=O)(=O)Cc1ccccc1` [3-Benzylsulfonylpropionitrile, 3-benzylsulfonylpropionitrile], the “% Inhibition” value in test [1] came out at 35%. The “tail flick latency compared with vehicle-treated mice” value in test [2] (500 mg/kg in DMSO, oral gavage, measured at 30, 60 and 120 minutes post dosing, n=10, significance p<0.05) was “statistically significant tail flick latency at 30, 60, and 120 minutes”. Consider `CN1CC[C@]23c4c5ccc(O)c4O[C@H]2[C@@H](O)C=C[C@H]3[C@H]1C5` [morphine, reference compound], for which the “tail flick latency compared with vehicle-treated mice” value in test [2] (mouse, in vivo) was “statistically significant tail flick latency at 30 and 60 minutes, but not 120 minutes”.

Broadly, the % Inhibition is the relative decrease from the control value, in per cent. Read a high % Inhibition as strong suppression.
